The source of these data is ChEMBL document CHEMBL4371010, “Thermodynamics of DNA Minor Groove Binders” (2019).

Converted amounts (≈) assume the structure as drawn.

One test concerns Staphylococcus aureus. As to the kind of experiment: Antibacterial activity against methicillin-resistant Staphylococcus aureus. It is filed as functional.
A further test has as its system Clostridioides difficile. In words: […] activity against Clostridium difficile. It is filed as functional.

On to `COc1cccc(C(=O)Nc2cc(C(=O)Nc3cc(C(=O)Nc4cc(C(=O)NCCCN(C)C)n(C)c4)n(CCC(C)C)c3)n(C)c2)c1`, for which, in the test with Staphylococcus aureus, the MIC (in general, the lowest concentration that inhibits growth of the organism) was found to be 2 µM (≈ 1.32 µg/mL).

In the case of `CC1(C)S[C@@H]2[C@H](NC(=O)[C@H](N)c3ccc(O)cc3)C(=O)N2[C@H]1C(=O)O` [AMOXICILLIN], inhibition of growth in the test on Staphylococcus aureus (MIC) required 16.1 µM (≈ 5.88 µg/mL).

For the molecule `Cn1cc(NC(=O)c2cc(NC(=O)c3ccc(/C=C/c4cnc5ccccc5c4)cc3)cn2C)cc1C(=O)NCCN1CCOCC1` [MGB-BP-3], the MIC in the test on Clostridioides difficile turned out to be 1 µg/mL (≈ 1.58 µM).

Turning to `CN[C@H](CC(C)C)C(=O)N[C@H]1C(=O)N[C@@H](CC(N)=O)C(=O)N[C@H]2C(=O)N[C@H]3C(=O)N[C@H](C(=O)N[C@H](C(=O)O)c4cc(O)cc(O)c4-c4cc3ccc4O)[C@H](O)c3ccc(c(Cl)c3)Oc3cc2cc(c3O[C@@H]2O[C@H](CO)[C@@H](O)[C@H](O)[C@H]2O[C@H]2C[C@](C)(N)[C@H](O)[C@H](C)O2)Oc2ccc(cc2Cl)[C@H]1O` [VANCOMYCIN], the MIC with Clostridioides difficile was 1 µg/mL (≈ 0.69 µM).
